According to patent US20250230193A1, “CYCLIC COMPOUND HAVING SELECTIVE KRAS INHIBITORY EFFECT ON HRAS AND NRAS” (CHUGAI SEIYAKU KABUSHIKI KAISHA, priority 2022, published 2025):
Where a SMILES comes first, the peptide text is derived from it. Bridges are numbered along the chain shown (N, C = ends). [ ]: non-standard residue; d: D form. hPhe(3-Cl-4-CF3) = N[C@@H](CCc1ccc(C(F)(F)F)c(Cl)c1)C(=O)O; NPrPhe(4-CF3) = CCCN[C@@H](Cc1ccc(C(F)(F)F)cc1)C(=O)O; NMeGly(cPent) = CN[C@H](C(=O)O)C1CCCC1; Pro(4,4-F2) = O=C(O)[C@@H]1CC(F)(F)CN1; Hyp = O=C(O)[C@@H]1C[C@@H](O)CN1; NMeD = CN[C@@H](CC(=O)O)C(=O)O; NMeL = CN[C@@H](CC(C)C)C(=O)O; Ac5c = NC1(C(=O)O)CCCC1; Aze = O=C(O)[C@@H]1CCN1; Ac4c = NC1(C(=O)O)CCC1; NEtG = CCNCC(=O)O; Sar = CNCC(=O)O

Assays:
[1] = target: GDP-bound HRAS wild-type protein (Homo sapiens, UniProt P01112); test: Binding to HRAS by surface plasmon resonance (SPR), Single Cycle Kinetics; details: KD ratio HRAS/KRAS, SPR
Sequence of GDP-bound HRAS wild-type protein (P01112 whole entry): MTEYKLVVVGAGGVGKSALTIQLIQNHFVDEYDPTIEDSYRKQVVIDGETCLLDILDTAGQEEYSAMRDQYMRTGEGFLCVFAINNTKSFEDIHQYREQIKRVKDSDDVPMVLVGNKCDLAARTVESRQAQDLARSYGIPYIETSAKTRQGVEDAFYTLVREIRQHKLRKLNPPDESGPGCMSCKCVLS

[2] = target: GDP-bound NRAS wild-type protein (Homo sapiens, UniProt P01111); test: Binding to NRAS by surface plasmon resonance (SPR), Single Cycle Kinetics; details: KD ratio NRAS/KRAS, SPR
Sequence of GDP-bound NRAS wild-type protein (P01111 whole entry): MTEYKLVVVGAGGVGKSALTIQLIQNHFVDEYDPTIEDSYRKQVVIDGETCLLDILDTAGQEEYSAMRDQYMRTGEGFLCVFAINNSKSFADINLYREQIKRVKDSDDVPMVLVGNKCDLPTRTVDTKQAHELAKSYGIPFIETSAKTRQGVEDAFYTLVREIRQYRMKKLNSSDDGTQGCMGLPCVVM

Row | Compound | HRAS/KRAS (ratio of KD value with respect to GDP-bound HRAS wild-type protein to KD value with respect to KRAS) [1] | NRAS/KRAS (ratio of KD value with respect to GDP-bound NRAS wild-type protein to KD value with respect to KRAS) [2]
1 | CCCN1C(=O)CN(C)C(=O)CNC(=O)[C@H]([C@@H](C)CC)NC(=O)[C@H](CC(C)C)N(C)C(=O)C[C@@H](C(=O)N(C)C)N(C)C(=O)[C@H](C2CCCC2)N(C)C(=O)C2(CCCC2)NC(=O)[C@@H]2C[C@@H](OCC)CN2C(=O)[C@H](CCc2ccc(C(F)(F)F)c(Cl)c2)NC(=O)CN(C)C(=O)[C@@H]1Cc1ccc(C(F)(F)F)cc1 [PP0421] ([NMeL]IG[Sar][NPrPhe(4-CF3)][Sar][hPhe(3-Cl-4-CF3)][Hyp](Et)[Ac5c][NMeGly(cPent)][NMeD]-NMe2; lactam N-11) | C (A compound having a KD ratio of 0.1 or more and less than 3 is denoted as C) | B (a compound having 3 or more and less than 10 is denoted as B)
2 | CCCN1C(=O)CN(C)C(=O)CNC(=O)[C@H]([C@@H](C)CC)NC(=O)[C@H](CC(C)C)N(C)C(=O)C[C@@H](C(=O)N(C)C)N(C)C(=O)[C@H](C2CCCC2)N(C)C(=O)C2(CCC2)NC(=O)[C@@H]2C[C@@H](OCC)CN2C(=O)[C@H](CCc2ccc(C(F)(F)F)c(Cl)c2)NC(=O)CN(C)C(=O)[C@@H]1Cc1ccc(C(F)(F)F)cc1 [PP0422] ([NMeL]IG[Sar][NPrPhe(4-CF3)][Sar][hPhe(3-Cl-4-CF3)][Hyp](Et)[Ac4c][NMeGly(cPent)][NMeD]-NMe2; lactam N-11) | B (a compound having 3 or more and less than 10 is denoted as B) | B (a compound having 3 or more and less than 10 is denoted as B)
3 | CCCN1C(=O)CN(C)C(=O)CN(CC)C(=O)[C@H]([C@@H](C)CC)NC(=O)[C@H](CC(C)C)N(C)C(=O)C[C@@H](C(=O)N(C)C)N(C)C(=O)[C@H](C2CCCC2)N(C)C(=O)C2(CCCC2)NC(=O)[C@@H]2CCCN2C(=O)[C@H](CCc2ccc(C(F)(F)F)c(Cl)c2)NC(=O)CN(C)C(=O)[C@@H]1Cc1ccc(C(F)(F)F)cc1 [PP0423] ([NMeL]I[NEtG][Sar][NPrPhe(4-CF3)][Sar][hPhe(3-Cl-4-CF3)]P[Ac5c][NMeGly(cPent)][NMeD]-NMe2; lactam N-11) | C (A compound having a KD ratio of 0.1 or more and less than 3 is denoted as C) | B (a compound having 3 or more and less than 10 is denoted as B)
4 | CCCN1C(=O)CN(C)C(=O)CN(CC)C(=O)[C@H]([C@@H](C)CC)NC(=O)[C@H](CC(C)C)N(C)C(=O)C[C@@H](C(=O)N(C)C)N(C)C(=O)[C@H](C2CCCC2)N(C)C(=O)C2(CCC2)NC(=O)[C@@H]2CCCN2C(=O)[C@H](CCc2ccc(C(F)(F)F)c(Cl)c2)NC(=O)CN(C)C(=O)[C@@H]1Cc1ccc(C(F)(F)F)cc1 [PP0424] ([NMeL]I[NEtG][Sar][NPrPhe(4-CF3)][Sar][hPhe(3-Cl-4-CF3)]P[Ac4c][NMeGly(cPent)][NMeD]-NMe2; lactam N-11) | C (A compound having a KD ratio of 0.1 or more and less than 3 is denoted as C) | B (a compound having 3 or more and less than 10 is denoted as B)
5 | CCCN1C(=O)CN(C)C(=O)CN(CC)C(=O)[C@H]([C@@H](C)CC)NC(=O)[C@H](CC(C)C)N(C)C(=O)C[C@@H](C(=O)N(C)C)N(C)C(=O)[C@H](C2CCCC2)N(C)C(=O)C2(CCCC2)NC(=O)[C@@H]2CC(F)(F)CN2C(=O)[C@H](CCc2ccc(C(F)(F)F)c(Cl)c2)NC(=O)CN(C)C(=O)[C@@H]1Cc1ccc(C(F)(F)F)cc1 [PP0425] ([NMeL]I[NEtG][Sar][NPrPhe(4-CF3)][Sar][hPhe(3-Cl-4-CF3)][Pro(4,4-F2)][Ac5c][NMeGly(cPent)][NMeD]-NMe2; lactam N-11) | C (A compound having a KD ratio of 0.1 or more and less than 3 is denoted as C) | B (a compound having 3 or more and less than 10 is denoted as B)
6 | CCCN1C(=O)CN(C)C(=O)CN(CC)C(=O)[C@H]([C@@H](C)CC)NC(=O)[C@H](CC(C)C)N(C)C(=O)C[C@@H](C(=O)N(C)C)N(C)C(=O)[C@H](C2CCCC2)N(C)C(=O)C2(CCC2)NC(=O)[C@@H]2CC(F)(F)CN2C(=O)[C@H](CCc2ccc(C(F)(F)F)c(Cl)c2)NC(=O)CN(C)C(=O)[C@@H]1Cc1ccc(C(F)(F)F)cc1 [PP0426] ([NMeL]I[NEtG][Sar][NPrPhe(4-CF3)][Sar][hPhe(3-Cl-4-CF3)][Pro(4,4-F2)][Ac4c][NMeGly(cPent)][NMeD]-NMe2; lactam N-11) | C (A compound having a KD ratio of 0.1 or more and less than 3 is denoted as C) | C (A compound having a KD ratio of 0.1 or more and less than 3 is denoted as C)
7 | CCCN1C(=O)CN(C)C(=O)CN(CC)C(=O)[C@H]([C@@H](C)CC)NC(=O)[C@H](CC(C)C)N(C)C(=O)C[C@@H](C(=O)N(C)C)N(C)C(=O)[C@H](C2CCCC2)N(C)C(=O)C2(CCCC2)NC(=O)[C@@H]2C[C@@H](OCC)CN2C(=O)[C@H](CCc2ccc(C(F)(F)F)c(Cl)c2)NC(=O)CN(C)C(=O)[C@@H]1Cc1ccc(C(F)(F)F)cc1 [PP0427] ([NMeL]I[NEtG][Sar][NPrPhe(4-CF3)][Sar][hPhe(3-Cl-4-CF3)][Hyp](Et)[Ac5c][NMeGly(cPent)][NMeD]-NMe2; lactam N-11) | C (A compound having a KD ratio of 0.1 or more and less than 3 is denoted as C) | B (a compound having 3 or more and less than 10 is denoted as B)
8 | CCCN1C(=O)CN(C)C(=O)CN(CC)C(=O)[C@H]([C@@H](C)CC)NC(=O)[C@H](CC(C)C)N(C)C(=O)C[C@@H](C(=O)N(C)C)N(C)C(=O)[C@H](C2CCCC2)N(C)C(=O)C2(CCC2)NC(=O)[C@@H]2C[C@@H](OCC)CN2C(=O)[C@H](CCc2ccc(C(F)(F)F)c(Cl)c2)NC(=O)CN(C)C(=O)[C@@H]1Cc1ccc(C(F)(F)F)cc1 [PP0428] ([NMeL]I[NEtG][Sar][NPrPhe(4-CF3)][Sar][hPhe(3-Cl-4-CF3)][Hyp](Et)[Ac4c][NMeGly(cPent)][NMeD]-NMe2; lactam N-11) | C (A compound having a KD ratio of 0.1 or more and less than 3 is denoted as C) | B (a compound having 3 or more and less than 10 is denoted as B)
9 | CCCN1C(=O)CN(C)C(=O)[C@@H]2CCN2C(=O)[C@H]([C@@H](C)CC)NC(=O)[C@H](CC(C)C)N(C)C(=O)C[C@@H](C(=O)N(C)C)N(C)C(=O)[C@H](C2CCCC2)N(C)C(=O)C2(CCCC2)NC(=O)[C@@H]2CCCN2C(=O)[C@H](CCc2ccc(C(F)(F)F)c(Cl)c2)NC(=O)CN(C)C(=O)[C@@H]1Cc1ccc(C(F)(F)F)cc1 [PP0429] ([NMeL]I[Aze][Sar][NPrPhe(4-CF3)][Sar][hPhe(3-Cl-4-CF3)]P[Ac5c][NMeGly(cPent)][NMeD]-NMe2; lactam N-11) | C (A compound having a KD ratio of 0.1 or more and less than 3 is denoted as C) | B (a compound having 3 or more and less than 10 is denoted as B)
10 | CCCN1C(=O)CN(C)C(=O)[C@@H]2CCN2C(=O)[C@H]([C@@H](C)CC)NC(=O)[C@H](CC(C)C)N(C)C(=O)C[C@@H](C(=O)N(C)C)N(C)C(=O)[C@H](C2CCCC2)N(C)C(=O)C2(CCC2)NC(=O)[C@@H]2CCCN2C(=O)[C@H](CCc2ccc(C(F)(F)F)c(Cl)c2)NC(=O)CN(C)C(=O)[C@@H]1Cc1ccc(C(F)(F)F)cc1 [PP0430] ([NMeL]I[Aze][Sar][NPrPhe(4-CF3)][Sar][hPhe(3-Cl-4-CF3)]P[Ac4c][NMeGly(cPent)][NMeD]-NMe2; lactam N-11) | B (a compound having 3 or more and less than 10 is denoted as B) | B (a compound having 3 or more and less than 10 is denoted as B)
11 | CCCN1C(=O)CN(C)C(=O)[C@@H]2CCN2C(=O)[C@H]([C@@H](C)CC)NC(=O)[C@H](CC(C)C)N(C)C(=O)C[C@@H](C(=O)N(C)C)N(C)C(=O)[C@H](C2CCCC2)N(C)C(=O)C2(CCCC2)NC(=O)[C@@H]2CC(F)(F)CN2C(=O)[C@H](CCc2ccc(C(F)(F)F)c(Cl)c2)NC(=O)CN(C)C(=O)[C@@H]1Cc1ccc(C(F)(F)F)cc1 [PP0431] ([NMeL]I[Aze][Sar][NPrPhe(4-CF3)][Sar][hPhe(3-Cl-4-CF3)][Pro(4,4-F2)][Ac5c][NMeGly(cPent)][NMeD]-NMe2; lactam N-11) | C (A compound having a KD ratio of 0.1 or more and less than 3 is denoted as C) | B (a compound having 3 or more and less than 10 is denoted as B)
12 | CCCN1C(=O)CN(C)C(=O)[C@@H]2CCN2C(=O)[C@H]([C@@H](C)CC)NC(=O)[C@H](CC(C)C)N(C)C(=O)C[C@@H](C(=O)N(C)C)N(C)C(=O)[C@H](C2CCCC2)N(C)C(=O)C2(CCC2)NC(=O)[C@@H]2CC(F)(F)CN2C(=O)[C@H](CCc2ccc(C(F)(F)F)c(Cl)c2)NC(=O)CN(C)C(=O)[C@@H]1Cc1ccc(C(F)(F)F)cc1 [PP0432] ([NMeL]I[Aze][Sar][NPrPhe(4-CF3)][Sar][hPhe(3-Cl-4-CF3)][Pro(4,4-F2)][Ac4c][NMeGly(cPent)][NMeD]-NMe2; lactam N-11) | B (a compound having 3 or more and less than 10 is denoted as B) | B (a compound having 3 or more and less than 10 is denoted as B)
